PubChem BioAssay (NCI)
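Each compound was tested at five concentrations against cells in 96-well plates for 48 hours. TGI denotes the concentration required for complete inhibition of growth.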

What was measured:
Test in all cases: inhibition of tumour cell growth, NCI panel, 48 h
786-0 renal = test system: 786-0 renal
A498 renal = test system: A498 renal
A549 NSCLC = test system: A549 NSCLC
ACHN renal = test system: ACHN renal
BT-549 breast = test system: BT-549 breast
CAKI-1 renal = test system: CAKI-1 renal
CCRF-CEM leukemia = test system: CCRF-CEM leukemia
COLO 205 colon = test system: COLO 205 colon
DU-145 prostate = test system: DU-145 prostate
EKVX NSCLC = test system: EKVX NSCLC
HCT-116 colon = test system: HCT-116 colon
HCT-15 colon = test system: HCT-15 colon
HL-60(TB) leukemia = test system: HL-60(TB) leukemia
HOP-62 NSCLC = test system: HOP-62 NSCLC
HOP-92 NSCLC = test system: HOP-92 NSCLC
HS 578T breast = test system: HS 578T breast
HT29 colon = test system: HT29 colon
IGROV1 ovarian = test system: IGROV1 ovarian
K-562 leukemia = test system: K-562 leukemia
KM12 colon = test system: KM12 colon
LOX IMVI melanoma = test system: LOX IMVI melanoma
M14 melanoma = test system: M14 melanoma
MALME-3M melanoma = test system: MALME-3M melanoma
MCF7 breast = test system: MCF7 breast
MDA-MB-231 breast = test system: MDA-MB-231 breast
MDA-MB-435 = test system: MDA-MB-435
MDA-N = test system: MDA-N
MOLT-4 leukemia = test system: MOLT-4 leukemia
NCI-H226 lung = test system: NCI-H226 lung
NCI-H460 lung = test system: NCI-H460 lung
NCI-H522 lung = test system: NCI-H522 lung
NCI/ADR-RES ovarian = test system: NCI/ADR-RES ovarian
OVCAR-3 ovarian = test system: OVCAR-3 ovarian
OVCAR-4 ovarian = test system: OVCAR-4 ovarian
OVCAR-5 ovarian = test system: OVCAR-5 ovarian
OVCAR-8 ovarian = test system: OVCAR-8 ovarian
PC-3 prostate = test system: PC-3 prostate
RPMI-8226 leukemia = test system: RPMI-8226 leukemia
RXF 393 renal = test system: RXF 393 renal
SF-268 CNS = test system: SF-268 CNS
SF-295 CNS = test system: SF-295 CNS
SF-539 CNS = test system: SF-539 CNS
SK-MEL-2 melanoma = test system: SK-MEL-2 melanoma
SK-MEL-28 melanoma = test system: SK-MEL-28 melanoma
SK-MEL-5 melanoma = test system: SK-MEL-5 melanoma
SK-OV-3 ovarian = test system: SK-OV-3 ovarian
SN12C renal = test system: SN12C renal
SNB-19 CNS = test system: SNB-19 CNS
SNB-75 CNS = test system: SNB-75 CNS
SR leukemia = test system: SR leukemia
SW-620 colon = test system: SW-620 colon
T-47D breast = test system: T-47D breast
TK-10 renal = test system: TK-10 renal
U251 CNS = test system: U251 CNS
UACC-257 melanoma = test system: UACC-257 melanoma
UACC-62 melanoma = test system: UACC-62 melanoma
UO-31 renal = test system: UO-31 renal
HCC-2998 colon = test system: HCC-2998 colon
NCI-H23 lung = test system: NCI-H23 lung

SMILES: COc1ccc(/C=C/C(=O)c2nc3ccccc3[nH]2)cc1
- TGI (786-0 renal): 32.2 µM
- TGI (A498 renal): > 82.7 µM
- TGI (A549 NSCLC): > 81.8 µM
- TGI (ACHN renal): 34.5 µM
- TGI (BT-549 breast): 55.2 µM
- TGI (CAKI-1 renal): > 100 µM
- TGI (CCRF-CEM leukemia): > 100 µM
- TGI (COLO 205 colon): 26 µM
- TGI (DU-145 prostate): 45.6 µM
- TGI (EKVX NSCLC): 46 µM
- TGI (HCT-116 colon): 18.6 µM
- TGI (HCT-15 colon): > 40.5 µM
- TGI (HL-60(TB) leukemia): > 29.7 µM
- TGI (HOP-62 NSCLC): > 88.1 µM
- TGI (HOP-92 NSCLC): 35.6 µM
- TGI (HS 578T breast): > 77.2 µM
- TGI (HT29 colon): 22.9 µM
- TGI (IGROV1 ovarian): 25.9 µM
- TGI (K-562 leukemia): > 100 µM
- TGI (KM12 colon): 19.8 µM
- TGI (LOX IMVI melanoma): 28.2 µM
- TGI (M14 melanoma): > 59.1 µM
- TGI (MALME-3M melanoma): 61.7 µM
- TGI (MCF7 breast): > 81 µM
- TGI (MDA-MB-231 breast): 48.9 µM
- TGI (MDA-MB-435): > 100 µM
- TGI (MDA-N): 32.9 µM
- TGI (MOLT-4 leukemia): > 67.1 µM
- TGI (NCI-H226 lung): > 54.7 µM
- TGI (NCI-H460 lung): 47.5 µM
- TGI (NCI-H522 lung): 32.5 µM
- TGI (NCI/ADR-RES ovarian): 53.5 µM
- TGI (OVCAR-3 ovarian): 48.5 µM
- TGI (OVCAR-4 ovarian): 60.1 µM
- TGI (OVCAR-5 ovarian): > 71.7 µM
- TGI (OVCAR-8 ovarian): 51.1 µM
- TGI (PC-3 prostate): 87.6 µM
- TGI (RPMI-8226 leukemia): > 29.8 µM
- TGI (RXF 393 renal): 35.3 µM
- TGI (SF-268 CNS): > 64.5 µM
- TGI (SF-295 CNS): > 84.8 µM
- TGI (SF-539 CNS): 26.7 µM
- TGI (SK-MEL-2 melanoma): > 100 µM
- TGI (SK-MEL-28 melanoma): 65.6 µM
- TGI (SK-MEL-5 melanoma): 31.8 µM
- TGI (SK-OV-3 ovarian): 86.1 µM
- TGI (SN12C renal): 73.9 µM
- TGI (SNB-19 CNS): 77.3 µM
- TGI (SNB-75 CNS): 57.4 µM
- TGI (SR leukemia): > 27.1 µM
- TGI (SW-620 colon): 49.1 µM
- TGI (T-47D breast): 53.7 µM
- TGI (TK-10 renal): 47.2 µM
- TGI (U251 CNS): 37.3 µM
- TGI (UACC-257 melanoma): 52 µM
- TGI (UACC-62 melanoma): 38.9 µM
- TGI (UO-31 renal): 34.6 µM

SMILES: CC(Oc1ccccc1)C(=O)NN (stereo unspecified)
- TGI (786-0 renal): > 100 µM
- TGI (A498 renal): > 100 µM
- TGI (A549 NSCLC): > 100 µM
- TGI (ACHN renal): > 100 µM
- TGI (BT-549 breast): > 100 µM
- TGI (CAKI-1 renal): > 100 µM
- TGI (CCRF-CEM leukemia): > 100 µM
- TGI (COLO 205 colon): > 100 µM
- TGI (DU-145 prostate): > 100 µM
- TGI (EKVX NSCLC): > 100 µM
- TGI (HCC-2998 colon): > 100 µM
- TGI (HCT-116 colon): > 100 µM
- TGI (HCT-15 colon): > 100 µM
- TGI (HL-60(TB) leukemia): > 100 µM
- TGI (HOP-62 NSCLC): > 100 µM
- TGI (HOP-92 NSCLC): > 100 µM
- TGI (HS 578T breast): > 100 µM
- TGI (HT29 colon): > 100 µM
- TGI (IGROV1 ovarian): > 100 µM
- TGI (K-562 leukemia): > 100 µM
- TGI (KM12 colon): > 100 µM
- TGI (LOX IMVI melanoma): > 100 µM
- TGI (M14 melanoma): > 100 µM
- TGI (MALME-3M melanoma): > 100 µM
- TGI (MCF7 breast): > 100 µM
- TGI (MDA-MB-231 breast): > 100 µM
- TGI (MDA-MB-435): > 100 µM
- TGI (MDA-N): > 100 µM
- TGI (MOLT-4 leukemia): > 100 µM
- TGI (NCI-H226 lung): > 100 µM
- TGI (NCI-H23 lung): > 100 µM
- TGI (NCI-H460 lung): > 100 µM
- TGI (NCI-H522 lung): > 100 µM
- TGI (NCI/ADR-RES ovarian): > 100 µM
- TGI (OVCAR-3 ovarian): > 100 µM
- TGI (OVCAR-4 ovarian): > 100 µM
- TGI (OVCAR-5 ovarian): > 100 µM
- TGI (OVCAR-8 ovarian): > 100 µM
- TGI (PC-3 prostate): > 100 µM
- TGI (RPMI-8226 leukemia): > 100 µM
- TGI (RXF 393 renal): > 100 µM
- TGI (SF-268 CNS): > 100 µM
- TGI (SF-295 CNS): > 100 µM
- TGI (SF-539 CNS): > 100 µM
- TGI (SK-MEL-2 melanoma): > 100 µM
- TGI (SK-MEL-28 melanoma): > 100 µM
- TGI (SK-MEL-5 melanoma): > 100 µM
- TGI (SK-OV-3 ovarian): > 100 µM
- TGI (SN12C renal): > 100 µM
- TGI (SNB-19 CNS): > 100 µM
- TGI (SNB-75 CNS): > 100 µM
- TGI (SR leukemia): > 100 µM
- TGI (SW-620 colon): > 100 µM
- TGI (T-47D breast): > 100 µM
- TGI (TK-10 renal): > 100 µM
- TGI (U251 CNS): > 100 µM
- TGI (UACC-257 melanoma): > 100 µM
- TGI (UACC-62 melanoma): > 100 µM
- TGI (UO-31 renal): > 100 µM
